From ChEMBL document CHEMBL1201862, “PubChem BioAssay data set” (2004)
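All cell lines were grown in 96-well plates and treated with compound for 48 hours. Abbreviation: GI50, concentration required for 50% inhibition of growth.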 The source made the active and inactive calls. No stated cut-off is given here; in the data, active = GI50 up to about 1.1 µM and inactive = higher.

Assays:
Assay in all cases: inhibition of tumour cell growth, NCI panel, 48 h
[1] = tested on: DMS-114
[2] = tested on: TK-10
[3] = tested on: SF-539
[4] = tested on: A498
[5] = tested on: SK-MEL-2
[6] = tested on: KM-20L2
[7] = tested on: HCT-116
[8] = tested on: M19-MEL
[9] = tested on: OVCAR-3
[10] = tested on: SNB-75
[11] = tested on: RXF 393
[12] = tested on: COLO 205
[13] = tested on: SW-620
[14] = tested on: NCI-H460
[15] = tested on: K562
[16] = tested on: MOLT-4
[17] = tested on: HOP-62
[18] = tested on: HCT-15
[19] = tested on: NCI-H23
[20] = tested on: UACC-62
[21] = tested on: OVCAR-8
[22] = tested on: UACC-257
[23] = tested on: NCI-H226
[24] = tested on: CAKI-1
[25] = tested on: ACHN
[26] = tested on: SK-MEL-28
[27] = tested on: CCRF-CEM
[28] = tested on: Malme-3M
[29] = tested on: KM12
[30] = tested on: SF-295
[31] = tested on: SNB-78
[32] = tested on: HT-29
[33] = tested on: SF-268
[34] = tested on: RPMI-8226
[35] = tested on: M14
[36] = tested on: SK-OV-3
[37] = tested on: SK-MEL-5
[38] = tested on: 786-0
[39] = tested on: HCC 2998
[40] = tested on: HL-60
[41] = tested on: SN12C
[42] = tested on: DLD-1
[43] = tested on: A549
[44] = tested on: OVCAR-5
[45] = tested on: U-251
[46] = tested on: SNB-19
[47] = tested on: IGROV-1
[48] = tested on: EKVX
[49] = tested on: LOX IMVI
[50] = tested on: HOP-92
[51] = tested on: LXFL 529
[52] = tested on: UO-31
[53] = tested on: NCI/ADR-RES
[54] = tested on: MDA-MB-435
[55] = tested on: Hs-578T
[56] = tested on: DU-145
[57] = tested on: MCF7
[58] = tested on: MDA-MB-231
[59] = tested on: PC-3
[60] = tested on: BT-549
[61] = tested on: OVCAR-4
[62] = tested on: NCI-H522
[63] = tested on: MDA-N
[64] = tested on: T47D
[65] = tested on: SR

Compound: CC(=O)NNc1nc(C)c(C(/C=C/c2ccc(/C=C/C(=N\NC(=O)c3ccncc3)c3sc(NNC(C)=O)nc3C)cc2)=N/NC(=O)c2ccncc2)s1
- GI50 [1]: > 100 µM (inactive)
- GI50 [2]: > 100 µM (inactive)
- GI50 [3]: > 100 µM (inactive)
- GI50 [4]: > 100 µM (inactive)
- GI50 [5]: > 100 µM (inactive)
- GI50 [6]: > 100 µM (inactive)
- GI50 [7]: > 100 µM (inactive)
- GI50 [8]: > 100 µM (inactive)
- GI50 [9]: > 100 µM (inactive)
- GI50 [10]: > 100 µM (inactive)
- GI50 [11]: > 100 µM (inactive)
- GI50 [12]: > 100 µM (inactive)
- GI50 [13]: > 100 µM (inactive)
- GI50 [14]: > 100 µM (inactive)
- GI50 [15]: > 100 µM (inactive)
- GI50 [16]: > 100 µM (inactive)
- GI50 [17]: > 100 µM (inactive)
- GI50 [18]: > 100 µM
- GI50 [19]: > 100 µM (inactive)
- GI50 [20]: > 100 µM (inactive)
- GI50 [21]: > 100 µM (inactive)
- GI50 [22]: 44.5 µM (inactive)
- GI50 [23]: > 100 µM (inactive)
- GI50 [24]: > 100 µM (inactive)
- GI50 [25]: > 100 µM (inactive)
- GI50 [26]: > 100 µM (inactive)
- GI50 [27]: > 100 µM (inactive)
- GI50 [28]: > 100 µM (inactive)
- GI50 [29]: > 100 µM (inactive)
- GI50 [30]: > 100 µM (inactive)
- GI50 [31]: > 100 µM (inactive)
- GI50 [32]: > 100 µM (inactive)
- GI50 [33]: > 100 µM (inactive)
- GI50 [34]: > 100 µM (inactive)
- GI50 [35]: 41.7 µM (inactive)
- GI50 [36]: > 100 µM (inactive)
- GI50 [37]: > 100 µM (inactive)
- GI50 [38]: > 100 µM (inactive)
- GI50 [39]: > 100 µM (inactive)
- GI50 [40]: > 100 µM (inactive)
- GI50 [41]: > 100 µM (inactive)
- GI50 [42]: > 100 µM (inactive)
- GI50 [43]: > 100 µM (inactive)
- GI50 [44]: > 100 µM (inactive)
- GI50 [45]: > 100 µM (inactive)
- GI50 [46]: > 100 µM (inactive)
- GI50 [47]: > 100 µM (inactive)
- GI50 [48]: > 100 µM (inactive)
- GI50 [49]: > 100 µM (inactive)
- GI50 [50]: 54 µM (inactive)
- GI50 [51]: > 100 µM (inactive)
- GI50 [52]: > 100 µM (inactive)

Compound: Cc1noc(NS(=O)(=O)c2ccc(NC(=O)c3ccc4nc5ccccc5c(Nc5ccc(S(=O)(=O)Nc6onc(C)c6C)cc5)c4c3)cc2)c1C
- GI50 [2]: > 100 µM (inactive)
- GI50 [53]: > 100 µM (inactive)
- GI50 [3]: > 100 µM (inactive)
- GI50 [4]: > 100 µM (inactive)
- GI50 [5]: > 100 µM (inactive)
- GI50 [7]: > 100 µM (inactive)
- GI50 [54]: > 100 µM (inactive)
- GI50 [9]: 70.3 µM (inactive)
- GI50 [10]: > 100 µM (inactive)
- GI50 [11]: 40.3 µM (inactive)
- GI50 [55]: > 100 µM (inactive)
- GI50 [12]: > 100 µM (inactive)
- GI50 [56]: > 100 µM (inactive)
- GI50 [13]: 97.7 µM (inactive)
- GI50 [14]: 67.3 µM (inactive)
- GI50 [15]: 25.5 µM (inactive)
- GI50 [16]: 80.5 µM (inactive)
- GI50 [17]: > 100 µM (inactive)
- GI50 [18]: 58.1 µM
- GI50 [19]: > 100 µM (inactive)
- GI50 [20]: > 100 µM (inactive)
- GI50 [21]: > 100 µM (inactive)
- GI50 [22]: > 100 µM (inactive)
- GI50 [23]: > 100 µM (inactive)
- GI50 [24]: > 100 µM (inactive)
- GI50 [57]: 45.6 µM (inactive)
- GI50 [25]: > 100 µM (inactive)
- GI50 [26]: > 100 µM (inactive)
- GI50 [27]: 42.7 µM (inactive)
- GI50 [28]: > 100 µM (inactive)
- GI50 [29]: > 100 µM (inactive)
- GI50 [30]: > 100 µM (inactive)
- GI50 [32]: 73.3 µM (inactive)
- GI50 [58]: 22.1 µM (inactive)
- GI50 [33]: > 100 µM (inactive)
- GI50 [34]: 36.2 µM (inactive)
- GI50 [35]: > 100 µM (inactive)
- GI50 [36]: > 100 µM (inactive)
- GI50 [37]: 49.4 µM (inactive)
- GI50 [38]: 56.8 µM (inactive)
- GI50 [59]: > 100 µM (inactive)
- GI50 [60]: 24.8 µM (inactive)
- GI50 [39]: > 100 µM (inactive)
- GI50 [40]: 42.3 µM (inactive)
- GI50 [41]: > 100 µM (inactive)
- GI50 [43]: > 100 µM (inactive)
- GI50 [44]: > 100 µM (inactive)
- GI50 [45]: > 100 µM (inactive)
- GI50 [61]: > 100 µM (inactive)
- GI50 [62]: 52.1 µM (inactive)
- GI50 [46]: > 100 µM (inactive)
- GI50 [63]: > 100 µM (inactive)
- GI50 [64]: 40.2 µM (inactive)
- GI50 [47]: > 100 µM (inactive)
- GI50 [48]: > 100 µM (inactive)
- GI50 [49]: 21 µM (inactive)
- GI50 [50]: > 100 µM (inactive)
- GI50 [65]: 42 µM (inactive)
- GI50 [52]: > 100 µM (inactive)
